Source: BigSolDB 2.1

O=C(O)c1cccc2ccccc12
solubility (mole fraction) (in acetic acid, 293.15 K): 0.0172
solubility (mole fraction) (in acetic acid, 298.15 K): 0.0194
solubility (mole fraction) (in acetic acid, 303.15 K): 0.0224
solubility (mole fraction) (in acetic acid, 308.15 K): 0.0257
solubility (mole fraction) (in acetic acid, 313.15 K): 0.0296
solubility (mole fraction) (in acetic acid, 318.15 K): 0.0334
solubility (mole fraction) (in acetic acid, 323.15 K): 0.0383
solubility (mole fraction) (in acetic acid, 328.15 K): 0.0439
solubility (mole fraction) (in acetic acid, 333.15 K): 0.0503
solubility (mole fraction) (in ethanol, 293.15 K): 0.0282
solubility (mole fraction) (in ethanol, 298.15 K): 0.0311
solubility (mole fraction) (in ethanol, 303.15 K): 0.0356
solubility (mole fraction) (in ethanol, 308.15 K): 0.0402
solubility (mole fraction) (in ethanol, 313.15 K): 0.0457
solubility (mole fraction) (in ethanol, 318.15 K): 0.0513
solubility (mole fraction) (in ethanol, 323.15 K): 0.0574
solubility (mole fraction) (in ethanol, 328.15 K): 0.0654
solubility (mole fraction) (in ethanol, 333.15 K): 0.0738
solubility (mole fraction) (in ethyl acetate, 293.15 K): 0.0294
solubility (mole fraction) (in ethyl acetate, 298.15 K): 0.0329
solubility (mole fraction) (in ethyl acetate, 303.15 K): 0.0374
solubility (mole fraction) (in ethyl acetate, 308.15 K): 0.0418
solubility (mole fraction) (in ethyl acetate, 313.15 K): 0.0472
solubility (mole fraction) (in ethyl acetate, 318.15 K): 0.0534
solubility (mole fraction) (in ethyl acetate, 323.15 K): 0.06
solubility (mole fraction) (in ethyl acetate, 328.15 K): 0.0673
solubility (mole fraction) (in ethyl acetate, 333.15 K): 0.0754
solubility (mole fraction) (in isobutanol, 293.15 K): 0.0187
solubility (mole fraction) (in isobutanol, 298.15 K): 0.0213
solubility (mole fraction) (in isobutanol, 303.15 K): 0.0257
solubility (mole fraction) (in isobutanol, 308.15 K): 0.0311
solubility (mole fraction) (in isobutanol, 313.15 K): 0.0364
solubility (mole fraction) (in isobutanol, 318.15 K): 0.0427
solubility (mole fraction) (in isobutanol, 323.15 K): 0.0502
solubility (mole fraction) (in isobutanol, 328.15 K): 0.0588
solubility (mole fraction) (in isobutanol, 333.15 K): 0.0685
solubility (mole fraction) (in isopropanol, 293.15 K): 0.0251
solubility (mole fraction) (in isopropanol, 298.15 K): 0.0284
solubility (mole fraction) (in isopropanol, 303.15 K): 0.034
solubility (mole fraction) (in isopropanol, 308.15 K): 0.0401
solubility (mole fraction) (in isopropanol, 313.15 K): 0.0472
solubility (mole fraction) (in isopropanol, 318.15 K): 0.0544
solubility (mole fraction) (in isopropanol, 323.15 K): 0.0636
solubility (mole fraction) (in isopropanol, 328.15 K): 0.0731
solubility (mole fraction) (in isopropanol, 333.15 K): 0.0852
solubility (mole fraction) (in methanol, 293.15 K): 0.0206
solubility (mole fraction) (in methanol, 298.15 K): 0.0229
solubility (mole fraction) (in methanol, 303.15 K): 0.0269
solubility (mole fraction) (in methanol, 308.15 K): 0.0304
solubility (mole fraction) (in methanol, 313.15 K): 0.0351
solubility (mole fraction) (in methanol, 318.15 K): 0.0392
solubility (mole fraction) (in methanol, 323.15 K): 0.0443
solubility (mole fraction) (in methanol, 328.15 K): 0.0496
solubility (mole fraction) (in methanol, 333.15 K): 0.0557
solubility (mole fraction) (in methyl acetate, 293.15 K): 0.0257
solubility (mole fraction) (in methyl acetate, 298.15 K): 0.0301
solubility (mole fraction) (in methyl acetate, 303.15 K): 0.0335
solubility (mole fraction) (in methyl acetate, 308.15 K): 0.0387
solubility (mole fraction) (in methyl acetate, 313.15 K): 0.043
solubility (mole fraction) (in methyl acetate, 318.15 K): 0.0498
solubility (mole fraction) (in methyl acetate, 323.15 K): 0.055
solubility (mole fraction) (in methyl acetate, 328.15 K): 0.0622
solubility (mole fraction) (in n-butanol, 293.15 K): 0.03
solubility (mole fraction) (in n-butanol, 298.15 K): 0.0344
solubility (mole fraction) (in n-butanol, 303.15 K): 0.0389
solubility (mole fraction) (in n-butanol, 308.15 K): 0.0444
solubility (mole fraction) (in n-butanol, 313.15 K): 0.0514
solubility (mole fraction) (in n-butanol, 318.15 K): 0.0605
solubility (mole fraction) (in n-butanol, 323.15 K): 0.0684
solubility (mole fraction) (in n-butanol, 328.15 K): 0.079
solubility (mole fraction) (in n-butanol, 333.15 K): 0.0901
solubility (mole fraction) (in n-propanol, 293.15 K): 0.027
solubility (mole fraction) (in n-propanol, 298.15 K): 0.0302
solubility (mole fraction) (in n-propanol, 303.15 K): 0.0351
solubility (mole fraction) (in n-propanol, 308.15 K): 0.0407
solubility (mole fraction) (in n-propanol, 313.15 K): 0.0461
solubility (mole fraction) (in n-propanol, 318.15 K): 0.0536
solubility (mole fraction) (in n-propanol, 323.15 K): 0.0604
solubility (mole fraction) (in n-propanol, 328.15 K): 0.0702
solubility (mole fraction) (in n-propanol, 333.15 K): 0.0795
